Data set [1] can be described thus: Metabolic stability assay in rat liver microsomes. It counts as in vitro ADME. To be noted: for metabolic stability: 10 µM, 15, 30 and 60 min. How it is done: We next assessed the metabolic stability of these compounds (10 µM) in rat liver microsomes (Figure 2A). […] Therefore, we assumed that the occupation of metabolically labile sites at the aromatic core and the reduction in electron density at the oxidizable nitrogen atom of the piperazine ring might increase metabolic stability. Indeed, both the introduction of fluorine at R^2 and the introduction of an electron‐withdrawing carboxylic acid linker at R^3 improved metabolic stability. The substitution of chlorine with a trifluoromethyl group at R^1 was also beneficial. In contrast, homopiperazine and hydroxy linkers were metabolically labile.
The solubilized test compound (5 µL, final concentration 10 µM) was preincubated at 37 °C in 432 µL phosphate buffer (0.1 M, pH 7.4) together with 50 µL NADPH regenerating system (30 mM glucose‐6‐phosphate, 4 U mL^−1 glucose 6‐phosphate dehydrogenase, 10 mM NADP, and 30 mM MgCl2). After 5 min, the reaction started upon the addition of 13 µL of microsome mix from the liver of Sprague‐Dawley rats (Invitrogen; 20 mg protein per mL in 0.1 M phosphate buffer) in a shaking water bath at 37 °C. The reaction was stopped by adding 500 µL ice‐cold methanol at 0, 15, 30, and 60 min. The samples were centrifuged at 5000 × g for 5 min at 4 °C and the test compound was quantified from the supernatants by HPLC; the composition of the mobile phase was adapted to the test compound in a range of MeOH 40−90% and water (0.1% formic acid) 10−60%. Flow rate: 1 mL min^−1; stationary phase: Purospher STAR, RP18, 5 µm, 125 × 4; precolumn: Purospher STAR, RP18, 5 µm, 4 × 4; detection wavelength: 254 and 280 nm; injection volume: 50 µL. Control samples were used to evaluate the stability of the test compounds in the reaction mixture. The first control was without NADPH, which is needed for the enzymatic activity of the microsomes, the second control was with inactivated microsomes (incubated for 20 min at 90 °C), and the third control was without the test compound (to determine the baseline). The amounts of test compounds were quantified using an external calibration curve.
A general note: Microsomes from liver hold many membrane-bound enzymes, among them those of drug oxidation.

For data set [2], the target named is T1, human D3 receptor (Homo sapiens, UniProt P35462).
T1 construct: expressed in transfected cells; host or cells: CHO
T1 sequence (P35462 whole entry): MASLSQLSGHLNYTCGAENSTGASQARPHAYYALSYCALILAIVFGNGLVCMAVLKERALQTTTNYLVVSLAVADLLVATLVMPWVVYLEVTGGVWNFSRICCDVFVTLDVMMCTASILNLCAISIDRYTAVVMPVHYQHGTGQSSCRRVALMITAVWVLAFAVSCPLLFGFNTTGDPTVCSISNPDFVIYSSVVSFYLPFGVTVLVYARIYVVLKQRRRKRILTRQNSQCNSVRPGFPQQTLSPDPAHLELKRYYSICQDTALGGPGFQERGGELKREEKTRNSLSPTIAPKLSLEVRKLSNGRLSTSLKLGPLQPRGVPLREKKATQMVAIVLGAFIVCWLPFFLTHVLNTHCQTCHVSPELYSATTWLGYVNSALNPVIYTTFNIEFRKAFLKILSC
Briefly: [3H]-spiperone competition binding assay, D3. To be noted: for pKi: mean [CI 95%]. On the procedure: CHO cells stably expressing human dopamine D2short (D2R) and D3 receptor (D3R) were washed and harvested using PBS. […] The cell membrane homogenate was centrifuged (20 000 × g, 20 min, 4 °C), and the resulting cell pellet was resuspended in the binding buffer. Crude membrane extracts were kept at −80 °C until use. Before starting the experiments, cell membranes were thawed, homogenized by sonication (3 × 10 s), and stored in an ice‐cold binding buffer. […] Assays were performed at least in triplicate with appropriate concentrations ranging from 0.01 nM to 100 µM of the test compound. Non‐specific binding was determined using 10 µM haloperidol. By filtering through GF/B filters pretreated with 0.3% (m/v) polyethyleneimine, the bound radioligand was separated from free radioligand using a cell harvester. Radioactivity was measured using liquid scintillation counting. Data were evaluated using the GraphPad Prism 9 software (San Diego, CA, USA) with a nonlinear regression fit.

In data set [3] the target is T2, adrenergic α1A receptor (Homo sapiens, UniProt P35348).
T2 construct: purchased Eurofins Cerep P270
T2 sequence (P35348 whole entry): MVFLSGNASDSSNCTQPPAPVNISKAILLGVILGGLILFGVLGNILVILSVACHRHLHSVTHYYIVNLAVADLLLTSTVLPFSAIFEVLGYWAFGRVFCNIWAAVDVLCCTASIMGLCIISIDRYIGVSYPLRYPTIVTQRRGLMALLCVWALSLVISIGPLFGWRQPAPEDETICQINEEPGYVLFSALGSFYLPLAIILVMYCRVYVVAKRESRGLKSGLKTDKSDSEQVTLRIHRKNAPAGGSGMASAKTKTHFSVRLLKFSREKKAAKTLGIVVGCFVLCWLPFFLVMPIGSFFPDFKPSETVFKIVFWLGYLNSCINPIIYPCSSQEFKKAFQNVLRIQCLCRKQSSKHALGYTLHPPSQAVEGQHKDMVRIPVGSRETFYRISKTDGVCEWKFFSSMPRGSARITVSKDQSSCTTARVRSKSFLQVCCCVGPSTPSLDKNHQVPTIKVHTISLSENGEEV
Description: SafetyScreen44 panel. It counts as binding. How it is done:
(§1) Measurements were performed in duplicate.
(§2) channel, which were obtainedfrom ratspecimens).
(§3) in brackets) specific for each target.

In data set [4] the target is T3, dopamine D1 receptor (Homo sapiens, UniProt P21728).
T3 construct: purchased Eurofins Cerep P270
T3 sequence (P21728 whole entry): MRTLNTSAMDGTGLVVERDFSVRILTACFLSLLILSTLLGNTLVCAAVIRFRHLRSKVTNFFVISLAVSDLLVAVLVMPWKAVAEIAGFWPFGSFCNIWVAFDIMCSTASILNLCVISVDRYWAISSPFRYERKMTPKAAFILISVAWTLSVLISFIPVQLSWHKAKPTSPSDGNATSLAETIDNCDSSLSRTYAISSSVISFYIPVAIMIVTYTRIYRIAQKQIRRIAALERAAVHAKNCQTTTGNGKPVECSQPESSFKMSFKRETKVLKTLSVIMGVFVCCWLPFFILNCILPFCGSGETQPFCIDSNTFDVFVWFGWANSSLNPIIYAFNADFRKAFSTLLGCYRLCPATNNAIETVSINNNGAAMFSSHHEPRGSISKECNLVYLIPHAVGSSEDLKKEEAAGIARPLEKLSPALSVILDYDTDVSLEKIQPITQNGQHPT
Description: SafetyScreen44 panel. The class given is binding. How it is done: as §1, §2, §3

The target in data set [5] is T4, dopamine D2S receptor (Homo sapiens, UniProt P14416).
T4 construct: purchased Eurofins Cerep P270
T4 sequence (P14416 1-414 isoform P14416-2): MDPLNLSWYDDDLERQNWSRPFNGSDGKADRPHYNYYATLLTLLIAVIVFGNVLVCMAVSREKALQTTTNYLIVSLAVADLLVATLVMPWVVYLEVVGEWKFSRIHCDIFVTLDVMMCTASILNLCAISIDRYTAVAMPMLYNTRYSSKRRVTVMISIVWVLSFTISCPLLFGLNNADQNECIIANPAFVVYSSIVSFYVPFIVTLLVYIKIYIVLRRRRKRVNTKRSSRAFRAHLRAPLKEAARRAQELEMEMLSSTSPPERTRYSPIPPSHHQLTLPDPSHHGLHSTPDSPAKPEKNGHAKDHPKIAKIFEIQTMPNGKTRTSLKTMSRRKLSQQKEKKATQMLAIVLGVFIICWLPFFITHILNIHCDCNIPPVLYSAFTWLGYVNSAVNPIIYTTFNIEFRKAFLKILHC
Description: SafetyScreen44 panel. It counts as binding. On the procedure: as §1, §2, §3

Data set [6] addresses T5, norepinephrine transporter (NET) (Homo sapiens, UniProt P23975).
T5 construct: purchased Eurofins Cerep P270
Briefly: SafetyScreen44 panel. The class given is binding. How it is done: as §1, §2, §3

Data set [7] has as its target T6, serotonin 5-HT2A receptor (Homo sapiens, UniProt P28223).
T6 construct: purchased Eurofins Cerep P270
Briefly: SafetyScreen44 panel. The class given is binding. On the procedure: as §1, §2, §3

The target in data set [8] is T7, serotonin 5-HT2B receptor (Homo sapiens, UniProt P41595).
T7 construct: purchased Eurofins Cerep P270
T7 sequence (P41595 whole entry): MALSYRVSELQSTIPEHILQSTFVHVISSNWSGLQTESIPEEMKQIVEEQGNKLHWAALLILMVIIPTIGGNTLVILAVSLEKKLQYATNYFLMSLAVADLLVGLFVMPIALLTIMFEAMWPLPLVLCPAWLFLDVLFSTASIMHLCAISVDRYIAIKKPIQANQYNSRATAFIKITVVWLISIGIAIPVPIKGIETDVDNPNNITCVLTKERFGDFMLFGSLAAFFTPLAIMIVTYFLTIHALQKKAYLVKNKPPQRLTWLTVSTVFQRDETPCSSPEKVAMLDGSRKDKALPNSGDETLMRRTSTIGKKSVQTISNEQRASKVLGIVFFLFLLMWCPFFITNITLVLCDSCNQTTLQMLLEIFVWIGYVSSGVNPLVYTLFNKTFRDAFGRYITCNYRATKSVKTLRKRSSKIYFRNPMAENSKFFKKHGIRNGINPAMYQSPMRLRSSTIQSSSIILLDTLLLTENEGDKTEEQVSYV
Description: SafetyScreen44 panel. It counts as binding. How it is done: as §1, §2, §3

The target in data set [9] is T8, serotonin transporter (SET) (Homo sapiens, UniProt P31645).
T8 construct: purchased Eurofins Cerep P270
T8 sequence (P31645 whole entry): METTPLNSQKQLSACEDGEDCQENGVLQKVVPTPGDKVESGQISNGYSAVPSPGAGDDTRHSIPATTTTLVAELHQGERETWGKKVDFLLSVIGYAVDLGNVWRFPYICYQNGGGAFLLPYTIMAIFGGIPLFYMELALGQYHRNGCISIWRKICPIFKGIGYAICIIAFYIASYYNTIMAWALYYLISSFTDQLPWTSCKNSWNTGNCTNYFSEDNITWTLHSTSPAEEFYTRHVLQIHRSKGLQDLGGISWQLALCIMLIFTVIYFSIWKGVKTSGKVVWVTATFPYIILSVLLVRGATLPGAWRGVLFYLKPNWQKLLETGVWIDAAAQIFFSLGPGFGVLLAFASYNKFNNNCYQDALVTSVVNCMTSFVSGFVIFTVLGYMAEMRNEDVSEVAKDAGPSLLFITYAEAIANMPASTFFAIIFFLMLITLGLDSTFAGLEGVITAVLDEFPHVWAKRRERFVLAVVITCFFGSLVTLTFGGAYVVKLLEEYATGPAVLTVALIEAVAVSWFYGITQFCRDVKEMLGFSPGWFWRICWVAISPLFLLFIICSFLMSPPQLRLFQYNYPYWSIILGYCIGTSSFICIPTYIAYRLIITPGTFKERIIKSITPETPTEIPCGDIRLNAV
Briefly: SafetyScreen44 panel. It counts as binding. How it is done: as §1, §2, §3

In data set [10] the test system is voltage-gated (KV) potassium channel. Briefly: SafetyScreen44 panel. The class given is binding, rat. To be noted: 10 µM. On the procedure: as §1, §2, §3
Data set [11] relates to mice. Description: Accelerating rotarod test. The class given is in vivo, mouse. To be noted: 15 min after dosing. On the procedure: (§4) As a prerequisite for interpreting itch behavior experiments, we first tested motor function after systemic dosing.
(§5) Mice were placed on a rotarod treadmill (Ugo Basile, Italy) at increasing speed (4–40 rpm over 300 s) and trained for 4–5 consecutive days. Only mice that reached 300 s without falling off during the training sessions were included in the experiment. In the vertical pole test, the mice were placed head‐upward on top of a vertical pole with a rough surface (diameter, 1 cm; height, 40 cm), and the time until the animals reached the ground was recorded (cut‐off time 20 s). Only mice that reached the ground within 10 s in the baseline measurements were included in the experiment. […] The means of three trials at each time point were calculated for further analyses.

Data set [12] deals with mice. Description: Vertical pole test. The class given is in vivo, mouse. Particulars: 15 min after dosing. How it is done: as §4, §5
For data set [13], the system named is mice. Description: Chloroquine-induced itch behavior, wildtype mice. The class given is in vivo, mouse. How it is done: (§6) We then assessed the antipruritic efficacy of compound 6 in a model of histamine‐independent itching induced by the antimalarial drug chloroquine.
(§7) Three to four days before the day of the experiment, the fur on the dorsolateral aspect of the neck was shaved under brief isoflurane anesthesia. On the testing day, the mice were habituated to a Plexiglas cylinder (30 cm in diameter) for 30 min. Compound 6 hydrochloride or vehicle were i.p. or p.o. administered, and 15 min later, the pruritogens chloroquine (200 µg), SLIGRL (100 µg), β‐alanine (100 µg), or histamine (800 µg), all dissolved in 0.9% saline (20 µL), were injected subcutaneously into the nape of the neck.^[ [29] ^] Number of scratching bouts directed toward the nape of the neck was assessed over 30 min by videotaping. In experiments with the Slack inhibitor, compound 31 (ref. [27]; 30 mg kg^−1 in 0.9% NaCl with 2% DMSO and 10% Kolliphor) was i.p. administered 5 min prior to compound 6.

Data set [14] has as its system Slack−/− mice. Briefly: Chloroquine-induced itch behavior, Slack knockout mice. It counts as in vivo, mouse. How it is done: as §6, §7

These results are taken from PMC11022729 (Advanced Science, 2024).

pKi: −log10 of the molar value.

T6 sequence (P28223 whole entry): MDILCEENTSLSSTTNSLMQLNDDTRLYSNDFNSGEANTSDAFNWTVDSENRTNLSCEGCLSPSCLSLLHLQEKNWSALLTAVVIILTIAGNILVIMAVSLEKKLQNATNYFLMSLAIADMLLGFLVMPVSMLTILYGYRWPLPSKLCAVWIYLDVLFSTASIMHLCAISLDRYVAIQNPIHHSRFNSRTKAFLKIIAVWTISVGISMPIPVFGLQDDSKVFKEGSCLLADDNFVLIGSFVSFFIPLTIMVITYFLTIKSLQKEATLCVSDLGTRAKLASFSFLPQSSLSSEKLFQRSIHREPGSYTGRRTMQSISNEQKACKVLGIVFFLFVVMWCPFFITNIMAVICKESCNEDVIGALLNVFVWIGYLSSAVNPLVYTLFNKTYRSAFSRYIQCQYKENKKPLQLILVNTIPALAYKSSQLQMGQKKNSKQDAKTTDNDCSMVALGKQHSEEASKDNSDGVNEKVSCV
T5 sequence (P23975 whole entry): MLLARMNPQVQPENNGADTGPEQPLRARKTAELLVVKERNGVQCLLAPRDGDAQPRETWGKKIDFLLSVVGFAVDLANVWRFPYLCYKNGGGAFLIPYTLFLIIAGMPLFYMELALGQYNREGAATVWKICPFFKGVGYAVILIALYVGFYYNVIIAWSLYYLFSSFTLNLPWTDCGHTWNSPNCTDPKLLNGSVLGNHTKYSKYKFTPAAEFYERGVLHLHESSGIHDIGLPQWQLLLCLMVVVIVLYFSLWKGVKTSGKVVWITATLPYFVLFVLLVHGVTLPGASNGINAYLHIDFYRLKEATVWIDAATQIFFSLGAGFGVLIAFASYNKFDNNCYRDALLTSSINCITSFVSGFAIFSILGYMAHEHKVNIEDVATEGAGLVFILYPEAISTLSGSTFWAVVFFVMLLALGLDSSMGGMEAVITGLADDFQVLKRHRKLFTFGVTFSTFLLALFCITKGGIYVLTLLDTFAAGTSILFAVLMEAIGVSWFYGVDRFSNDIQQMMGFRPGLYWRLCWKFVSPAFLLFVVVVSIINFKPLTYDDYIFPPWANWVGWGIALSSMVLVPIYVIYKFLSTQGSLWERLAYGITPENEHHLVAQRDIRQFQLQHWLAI

A word on the pKi: it is −log10 of the Ki, conventionally taken in molar units. Read a low pKi as a large Ki. `O=C(O)COCCN1CCN(C2=Nc3ccccc3Oc3ccc(Cl)cc32)CC1` [Compound 6]: the metabolic stability entry in data set [1] is given as “highest metabolic stabilities”. For the same compound, the “fold lower affinity against D3 as compared to loxapine” value in data set [2] is recorded as “≈ 31 fold”. Further, in data set [2], the pKi is 5.45. The binding inhibition entry in data set [3] (10 µM), in data set [4] (10 µM), in [5] (10 µM), in data set [6] (10 µM), in data set [7] (10 µM) and in data set [8] (10 µM) was “substantial binding” in each case. Besides, in data set [9] (10 µM), the binding inhibition entry is “substantial binding”. Moreover, the binding entry in data set [10] is “did not measurably bind”. In [11] (3–30 mg i.p.), the “motor function, accelerating rotarod test” value was “did not impair motor function”. Further, the “motor function, vertical pole test” value in [12] (3–30 mg i.p.) is listed as “did not impair motor function”. Moreover, the chloroquine-induced scratching behavior entry was “profound antipruritic effect” in data set [13] (15 mg kg−1 p.o.) and “ameliorated scratching behavior in a dose‐dependent manner” in data set [13] (3, 10, or 30 mg kg−1 i.p. 15 min prior to s.c. chloroquine, scratching bouts over 30 min). The chloroquine-induced scratching entry in data set [14] (Slack−/− mice, i.p.) was “did not significantly alter”.
Usually inhibition stands for the share of the control response that was lost under treatment. As for `CN1CCN(C2=Nc3ccccc3Oc3ccc(Cl)cc32)CC1` [Loxapine, reference compound], the metabolic stability entry in data set [1] is “metabolized rapidly”. The drug remaining unmodified in [1] (10 µM, after 15 min) turned out to be 6%. Further, in data set [2], the pKi was 6.95. Also, the inhibition at 10 µM in data set [3] (read-out: binding inhibition), in data set [4] (read-out: binding inhibition), in data set [5] (read-out: binding inhibition), in data set [6] (read-out: binding inhibition), in data set [7] (read-out: binding inhibition) and in data set [8] (read-out: binding inhibition) was above 50% throughout. Further, the inhibition at 10 µM in [9] (read-out: binding inhibition) is above 50%. In addition, in [10], the binding entry is given as “did not measurably bind”. In data set [11] (dose of ≥ 0.39 mg kg−1 i.p.), the “motor function, accelerating rotarod test” value is “markedly reduced the ability of the mice to perform”. Besides, the “motor function, vertical pole test” value in [12] (dose of ≥ 0.39 mg kg−1 i.p.) is “markedly reduced the ability of the mice to perform”. The chloroquine-induced scratching behavior entry is recorded as “considerably alleviated” in data set [13] (wildtype mice, systemic low dose, preliminary experiments) and “did not affect” in [14] (Slack knockout mice, systemic low dose, preliminary experiments).
